Results as given in PubChem BioAssay AID212 (DTP/NCI, 2004).
Values joined by “and” are separate entries in the source; they are usually repeats but may differ in a detail not shown here. Equal values may be shown once. Records with an inconclusive call do not appear.

System: BDF1 mice, colon carcinoma 38 sc, T/C %
Experiment: NCI In Vivo Anticancer Drug Screen. Data for tumor model Colon Carcinoma 38 (subcutaneous) in B6D2F1 (BDF1) mice
Conditions: endpoint: median tumor weight (est.), higher = larger tumour
In short: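 Compound antitumor activity was assessed in mice carrying transplantable tumors. Survival or tumor size was recorded, and each value is the treated-group measurement divided by that of the vehicle-treated control group.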

[1] = dose: 100.0 mg/kg/injection, schedule: Q07DX002 (ip), vehicle: saline with Tween-80
[2] = dose: 400.0 mg/kg/injection, schedule: Q07DX002 (ip), vehicle: saline with Tween-80
[3] = dose: 25.0 mg/kg/injection, schedule: Q07DX002 (ip), vehicle: saline
[4] = dose: 50.0 mg/kg/injection, schedule: Q07DX002 (ip), vehicle: saline
[5] = dose: 100.0 mg/kg/injection, schedule: Q07DX002 (ip), vehicle: saline
[6] = dose: 200.0 mg/kg/injection, schedule: Q07DX002 (ip), vehicle: saline
[7] = dose: 12.5 mg/kg/injection, schedule: Q07DX002 (ip), vehicle: saline with Tween-80
[8] = dose: 25.0 mg/kg/injection, schedule: Q07DX002 (ip), vehicle: saline with Tween-80
[9] = dose: 200.0 mg/kg/injection, schedule: Q07DX002 (ip), vehicle: Klucel (hydroxypropylcellulose) (HPC)
[10] = dose: 50.0 mg/kg/injection, schedule: Q07DX002 (ip), vehicle: Klucel (hydroxypropylcellulose) (HPC)

Nc1ccc(S(N)(=O)=O)cc1
T/C [1]: 103 % of control | T/C (dose: 112.0 mg/kg/injection, schedule: Q07DX002 (ip), vehicle: saline with Tween-80): 82 % of control and 100 % of control | T/C [2]: 122 % of control | T/C (dose: 800.0 mg/kg/injection, schedule: Q07DX002 (ip), vehicle: saline with Tween-80): 76 % of control | T/C (dose: 1600.0 mg/kg/injection, schedule: Q07DX002 (ip), vehicle: saline with Tween-80): 101 % of control | T/C (dose: 1800.0 mg/kg/injection, schedule: Q07DX002 (ip), vehicle: saline with Tween-80): 80 % of control and 84 % of control

C[CH2][Sn]([CH2]C)([O]S(C)(=O)=O)[O]S(C)(=O)=O
T/C (dose: 1.56 mg/kg/injection, schedule: Q07DX002 (ip), vehicle: saline): 18 % of control | T/C (dose: 3.13 mg/kg/injection, schedule: Q07DX002 (ip), vehicle: saline): 78 % of control | T/C (dose: 6.25 mg/kg/injection, schedule: Q07DX002 (ip), vehicle: saline): 108 % of control and 117 % of control and 96 % of control | T/C [3]: 26 % of control

CN(CCN(C)C(=O)CCOS(C)(=O)=O)C(=O)CCOS(C)(=O)=O
T/C [4]: 75 % of control and 94 % of control | T/C [5]: 48 % of control and 63 % of control | T/C [6]: 25 % of control and 43 % of control

CCSC(=O)N1c2ccc(OC)cc2C=CC1C#N (configuration not stated)
T/C [7]: 70 % of control | T/C [8]: 81 % of control | T/C [1]: 107 % of control | T/C (dose: 175.0 mg/kg/injection, schedule: Q07DX002 (ip), vehicle: saline with Tween-80): 97 % of control | T/C (dose: 350.0 mg/kg/injection, schedule: Q07DX002 (ip), vehicle: saline with Tween-80): 115 % of control and 100 % of control | T/C [2]: 61 % of control | T/C (dose: 1400.0 mg/kg/injection, schedule: Q07DX002 (ip), vehicle: saline with Tween-80): 75 % of control and 89 % of control

NC(=S)N/N=C/c1ccc(OC(=O)COc2ccc(Cl)cc2)cn1
T/C [7]: 61 % of control | T/C [8]: 77 % of control | T/C (dose: 50.0 mg/kg/injection, schedule: Q07DX002 (ip), vehicle: saline with Tween-80): 119 % of control | T/C [1]: 89 % of control | T/C (dose: 200.0 mg/kg/injection, schedule: Q07DX002 (ip), vehicle: saline with Tween-80): 81 % of control | T/C [2]: 70 % of control

CC(=O)[O][Pb]([O]C(C)=O)([c]1ccccc1)[c]1ccccc1
T/C (dose: 12.5 mg/kg/injection, schedule: Q07DX002 (ip), vehicle: Klucel (hydroxypropylcellulose) (HPC)): 216 % of control | T/C [9]: 72 % of control

N#CCCN(C(=S)Nc1cccc(C(F)(F)F)c1)C1CCCCC1
T/C [10]: 67 % of control and 71 % of control | T/C [9]: 76 % of control and 80 % of control and 88 % of control | T/C (dose: 800.0 mg/kg/injection, schedule: Q07DX002 (ip), vehicle: Klucel (hydroxypropylcellulose) (HPC)): 79 % of control and 92 % of control

Nc1cc2c(c[n+](CCCCCCCC[n+]3cc4c5ccccc5c(N)cc4c4ccccc43)c3ccccc23)c2ccccc12
T/C (dose: 7.5 mg/kg/injection, schedule: Q07DX002 (ip), vehicle: water): 108 % of control | T/C (dose: 15.0 mg/kg/injection, schedule: Q07DX002 (ip), vehicle: water): 82 % of control | T/C (dose: 30.0 mg/kg/injection, schedule: Q07DX002 (ip), vehicle: water): 94 % of control | T/C (dose: 60.0 mg/kg/injection, schedule: Q07DX002 (ip), vehicle: water): 53 % of control

N/C(=N\OC(=O)Nc1ccc(CSc2ccc(Cl)cc2)o1)c1ccccn1
T/C (dose: 25.0 mg/kg/injection, schedule: Q07DX002 (ip), vehicle: Klucel (hydroxypropylcellulose) (HPC)): 89 % of control | T/C [10]: 75 % of control | T/C (dose: 100.0 mg/kg/injection, schedule: Q07DX002 (ip), vehicle: Klucel (hydroxypropylcellulose) (HPC)): 90 % of control

COc1cc2cc[n+](C)c(Cc3ccccc3)c2cc1OC
T/C (dose: 12.5 mg/kg/injection, schedule: Q07DX003 (ip), vehicle: saline): 113 % of control | T/C (dose: 25.0 mg/kg/injection, schedule: Q07DX003 (ip), vehicle: saline): 84 % of control | T/C (dose: 50.0 mg/kg/injection, schedule: Q07DX003 (ip), vehicle: saline): 80 % of control

Cn1cnc([N+](=O)[O-])c1SCC(=O)O
T/C (dose: 12.5 mg/kg/injection, schedule: Q07DX002 (ip), vehicle: saline): 65 % of control | T/C [3]: 62 % of control | T/C [4]: 67 % of control | T/C [5]: 99 % of control | T/C (dose: 112.5 mg/kg/injection, schedule: Q07DX002 (ip), vehicle: saline): 111 % of control | T/C [6]: 94 % of control | T/C (dose: 225.0 mg/kg/injection, schedule: Q07DX002 (ip), vehicle: saline): 85 % of control | T/C (dose: 400.0 mg/kg/injection, schedule: Q07DX002 (ip), vehicle: saline): 100 % of control | T/C (dose: 450.0 mg/kg/injection, schedule: Q07DX002 (ip), vehicle: saline): 163 % of control | T/C (dose: 900.0 mg/kg/injection, schedule: Q07DX002 (ip), vehicle: saline): 59 % of control | T/C (dose: 1800.0 mg/kg/injection, schedule: Q07DX002 (ip), vehicle: saline): 101 % of control
